Patent US7348305B2, “Inhibitor of cardiac tachyarrhythmias” (Department of Veterans Affairs, Rehabilitation, priority 2003, dated 2008)
Entries after “also recorded” stand apart in the source; their conditions may differ.

Key:
[1] = test system: ventricular tachyarrhythmias following LAD coronary artery ligation; experiment: Model 1: two-stage LAD coronary artery ligation, Holter EKG monitoring 2-24 hr (ventricular triplets, sustained VT/VF, death); type: in vivo, dog
Experimental: The two-stage ligation procedure results in a very low incidence of ventricular fibrillation (<5-10%) during the initial 6 hours following coronary artery occlusion (Harris et al., 1951). Almost all ventricular fibrillation occurs during the initial 30 minutes with a high proportion of successful defibrillation. Ambulatory EKG monitoring is performed over the 2-24 hr period following coronary artery ligation. During the 6-24 hr period, a 25-40% incidence of rapid monomorphic ventricular tachycardia (385±15/min) leading to ventricular fibrillation is observed at 13.3±0.8 hours post-LAD ligation (FIG. 1), with a mean duration of monomorphic ventricular tachycardia preceding ventricular fibrillation of 66±7 sec. When provocative ventricular pacing is performed at 24 hours, however, the reentrant substrate supporting sustained ventricular tachycardia is present in more than 80% of the surviving dogs with no difference in rate between spontaneous and pacing-induced sustained monomorphic ventricular tachycardias (FIG. 3).
In the 24-hr Infarct (Model 1) Studies, each control and etanercept pretreated animal was monitored for ventricular arrhythmias using a Holter 2-lead recording for the duration of time following LAD ligation. […] In the saline control group, 4 animals died at 11-24 hours post ligation. […]
Model 1: Electrophysiologic correlates of myocardial infarction over a 24-hr period. Eighteen 15-22 kg male mongrel dogs were anesthetized with IV sodium pentobarbital (30 mg/kg). A cuffed endotracheal tube was inserted and the animals were ventilated with room air using a volume-cycled respirator. […] The dogs were extubated and allowed to awaken in a temperature-controlled, humidified small animal post-operative recovery unit. They were given nalbuphine 0.2 mg/kg for post-operative analgesia. During the 2-24 hr period following LAD ligation, Holter monitoring was performed and the two-lead EKG was recorded on magnetic tape. Dogs were re-anesthetized with sodium pentobarbital at 24-hr. The thoracotomy was reopened and the heart was removed and perfused with ice-cold Tyrode's buffer via the left main coronary artery. The outer 0.5-1.5 mm EBZ tissue overlying the infarct was shaved and a longitudinal sample of tissue from the LAD region was stained with triphenyltetrazolium chloride (0.1%) to determine viability of the EBZ. Triphenyltetrazolium (TTZ) forms a brick-red precipitate in the presence of active intracellular dehydrogenases, delineating vital tissue. Non-viable tissues are not stained and remain a pale color. […] Tissue samples from the RS, the EBZ and the infarct tissue were dissected rapidly on an ice-cold surface, placed in freezer vials, and frozen in liquid nitrogen. These samples were then stored at −70° C. for later assay.
EKG Analysis: Full disclosure EKG records were obtained at 10 mm/sec for the entire 2-24 hour post-occlusion period. All measurements and calculations were made by direct visual observation and manual counting.
Anti-TNFα Treatment: A dosage of 2 mg/kg hTNFR:Fc (supplied as etanercept, Amgen, Inc, Thousand Oaks, Calif.) or saline were injected IV into a forepaw vein at 24-hr and again 1-hr prior to LAD ligation. […] This dosage was used after consultation with the pharmaceutical corporate pharmacology section and based on unpublished internal data that this dosage would provide maximal sequestration of tissue and circulating TNFα.

[2] = test system: β-adrenergic receptor kinase (βARK); experiment: βARK immunoblot of EBZ tissue 24 hr after LAD ligation (Model 1); type: in vivo, dog; conditions: 24 hr after LAD ligation
Experimental: βARK immunoblots were used to estimate βARK expression (Yu et al., 2000).
Western Blot Analysis: Assessment of βARK content was conducted using standard SDS-PAGE and immunoblot techniques. Samples containing 100 μg of protein from myocardial extracts were electrophoresed using 10% SDS-PAGE and transferred to nitrocellulose membranes. The membrane was incubated with monoclonal anti-βARK (Upstate Biotechnology, Inc, Lake Placid, N.Y.), followed by exposure to peroxidase-linked anti-mouse IgG. Antibody binding was detected by a chemiluminescent method (ECL, Amersham Biosciences Corp, Piscataway, N.J.). Quantification of immunoreactive proteins was performed by densitometric scanning and with Image QuaNT software (Molecular Dynamics).
β-ARK, Proteasome and Ubiquitin Expression Assays: β-ARK, ubiquitinated β-ARK and proteasome in EBZ and RS tissues was determined by Western blot analysis. Samples were adjusted after protein concentration was assayed (BCA, Pierce Chemicals) to provide identical loads. 100 μg protein was combined with equal volume of SDS sample buffer, and electrophoresed on a 10% polyacrylamide gel. The blocked membranes were incubated with mouse anti β-ARK monoclonal antibody (Santa Cruz Biotechnology, Santa Cruz, Calif.) for 1-h at room temperature followed by anti-mouse IgG coupled to horseradish peroxidase and developed using an ECL western blotting kit (Amersham). The bands were scanned, stripped and reprobed with mouse anti-ubiquitin antibody (Santa Cruz Biotechnology, Santa Cruz, Calif.). The membrane was rescanned, stripped a second time and reprobed with rabbit anti-proteasome 20S C2 subunit polyclonal antibody (A.G. Scientific, Inc. CA). A separate control gel was included that was similarly treated, but reprobed with the identical Ab and band quality and density compared to the previous data obtained before stripping. Quantitation of immunoreactive bands was performed by densitometric scanning using ImageQuant software (Molecular Dynamics).

[3] = test system: myeloperoxidase (MPO) activity; experiment: Leukocyte infiltration by myeloperoxidase (MPO) activity, Model 2; type: in vivo, dog; conditions: etanercept pretreated
Experimental: Calculated Oxygen Requirement and Leukocyte Infiltration: The animal's oxygen requirement was estimated by calculation of the double product (heart rate x mean arterial pressure). The myocardial activity of myeloperoxidase (MPO), an enzyme occurring virtually exclusively in neutrophils, was determined by using a modification of the method of Bradley (Mullane et al., 1985). Change in absorbance was measured spectrophotometrically in the supernatants of homogenized myocardium. One unit of MPO is defined as the quantity of enzyme hydrolyzing […] of peroxide per minute at 25° C.

congestive heart failure = conditions: cited from earlier work

Substance: etanercept
- fastest ventricular triplet rate observed per hour after LAD ligation (FIG. 18, FIG. 32) ([1]; 4 to 24 hr after LAD ligation): significant reduction
- mortality (dogs died of group) ([1]; 24 hr after LAD ligation, etanercept 2 mg/kg at -24 and -1 hr, bortezomib 0.0875 mg/kg at -1 and +6 hr, anakinra 10 mg/kg at -1 and +12 hr, control 4 of 10, preliminary): 0 of 8
- frequency of very rapid (≧360 bpm) ventricular triplets ([1]; etanercept 2 mg/kg IV 24 and 1 hr before LAD ligation, 4-24 hr (2 to 24 hr) after ligation, n=8, saline 21±6/hr): 6 ± 1 h⁻¹
- average frequency of total rapid (≧300 bpm) ventricular triplets ([1]; etanercept 2 mg/kg IV 24 and 1 hr before LAD ligation, n=8, saline 152±32/hr): 45 ± 8 h⁻¹
- very rapid (≧360 bpm) ventricular triplets versus control (FIG. 31B) ([1]; etanercept 2 mg/kg, bortezomib 0.0875 mg/kg): significant descrease; also recorded: significant decrease
- rapid (>300 bpm) ventricular triplets per hour versus control (FIG. 31A) ([1]; etanercept 2 mg/kg, bortezomib 0.0875 mg/kg, anakinra 10 mg/kg): significant descrease
- idioventricular heart rate on EKG ([1]; etanercept-treated dogs versus saline, after LAD ligation (FIG. 16B)): slower idioventricular heart rate
- development of sustained ventricular tachycardia or fibrillation ([1]; etanercept-treated dogs, four saline-treated dogs developed it at 11-24 hours post ligation): no etanercept-treated dogs developed sustained ventricular tachycardia or fibrillation
- βARK in EBZ as percentage of unoperated control tissue ([2]; etanercept 2 mg/kg pretreated, immunoblot, n=5, saline 4.3%): 33.8±7.2%
- salvage of βARK in EBZ tissue compared to saline control ([2]; etanercept pretreated): 8 fold
- leukocyte infiltration, myeloperoxidase ratio of ischemic to normal tissue ([3]; Model 2, n=7, saline 11±2.6): 1.8±0.2
- decrease in leukocyte accumulation within ischemically injured myocardium ([3]; Model 2, versus saline): 9 fold
- benefit upon functional status or survival in congestive heart failure (congestive heart failure; human clinical trials (Anker et al., 2002)): no significant benefits
- safety of administration in patients with heart failure (congestive heart failure; human, in vivo): safe
